How the values were obtained:
[1] = test system: MDR1 and BCRP; experiment: In vitro human transporter efflux (MDCK-MDR1-BCRP); format: in vitro ADME; settings: human, pH 7.4, Papp(B to A)/Papp(A to B), 1 or 0.1 μM, 90-min incubation
Experimental: In Vitro Human Transporter Efflux
MDCKII cells expressing MDR1 and BCRP were seeded onto polyethylene membranes in 96-well Transwell insert systems at a density to form a confluent cell monolayer. […] The final percent volume of the organic solvent was less than 1%. Permeation of the test compounds from A to B direction and from B to A direction was determined over a 90-min incubation at 37° C. and 5% CO2 with a relative humidity of 95%. At the end of the incubation, samples from the apical and basolateral side were taken and then precipitated with cold acetonitrile containing internal standard. After centrifugation at 4000 rpm, the supernatant was diluted with 0.1% formic acid aqueous solution and quantified by LC-MS/MS. The integrity of the cell monolayers was confirmed by using the marker Lucifer yellow.
(1) The efflux ratio was calculated using the following equation Efflux ratio=Papp(B to A)/Papp(A to B)
(2) where dCr/dt is the cumulative concentration of the compound in the receiver chamber as a function of time (in μM/s); Vr is the solution volume in the receiver chamber (0.1 ml on the apical side and 0.3 ml on the basolateral side); A is the surface area for the transport, that is, 0.11 cm2 for the area of the monolayer; and CO is the initial concentration in the donor chamber (in μM).

[2] = target: T1, PARP2 (Homo sapiens, UniProt Q9UGN5); experiment: PARP fluorescence anisotropy binding assay, PARP2; settings: recombinant full length PARP2
T1 construct: Recombinant full length PARP2 protein
Experimental: (§1) PARP Fluorescence Anisotropy Binding Assays
(§2) Recombinant full length PARP2 protein was diluted to 6 nM with 50 mM Tris pH 8, 0.001% Triton X100, 10 mM MgCl2, 150 mM NaCl and incubated for four hours with an equivalent volume of 2 nM fluorescent probe diluted with 50 mM Tris pH 8, 0.001% Triton X100, 10 mM MgCl2, 150 mM NaCl. The final DMSO concentration of the probe was kept below 1% (v/v).
(§3) Fluorescence anisotropy of the probe when bound to the proteins was measured using a BMG Pherastar FSX© in the presence of test compounds or solvent control and the effect on anisotropy determined. % inhibition values for different test compound concentrations were calculated and fitted to a four parameter logistic plot in order to determine the IC50 value.

[3] = target: T2, PARP3 (Homo sapiens, UniProt Q9Y6F1); experiment: PARP fluorescence anisotropy binding assay, PARP3; settings: recombinant full length PARP3
T2 construct: Recombinant full length PARP3 protein
T2 sequence (Q9Y6F1 1-533): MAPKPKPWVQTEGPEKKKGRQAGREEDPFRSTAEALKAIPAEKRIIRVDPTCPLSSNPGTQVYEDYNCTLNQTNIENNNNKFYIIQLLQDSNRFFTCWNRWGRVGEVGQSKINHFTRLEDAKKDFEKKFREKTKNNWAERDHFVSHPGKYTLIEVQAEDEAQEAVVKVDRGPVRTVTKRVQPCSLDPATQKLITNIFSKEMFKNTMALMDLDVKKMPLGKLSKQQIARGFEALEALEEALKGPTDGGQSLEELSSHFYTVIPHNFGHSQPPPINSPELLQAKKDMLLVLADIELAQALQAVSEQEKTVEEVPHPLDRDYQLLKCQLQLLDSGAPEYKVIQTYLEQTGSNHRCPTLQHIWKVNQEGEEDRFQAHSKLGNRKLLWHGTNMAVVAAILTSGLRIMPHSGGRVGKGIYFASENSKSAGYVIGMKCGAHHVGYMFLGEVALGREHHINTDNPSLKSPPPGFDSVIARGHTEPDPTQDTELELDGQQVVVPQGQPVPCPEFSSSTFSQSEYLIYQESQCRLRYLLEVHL
From the text: as §1

[4] = target: PARP5a (Homo sapiens, UniProt O95271); experiment: PARP fluorescence anisotropy binding assay, PARP5a binding domain; settings: recombinant PARP5a binding domain
From the text: as §1

[5] = target: T3, PARP6 (Homo sapiens, UniProt Q2NL67); experiment: PARP fluorescence anisotropy binding assay, PARP6; settings: recombinant full length GST tagged PARP6
T3 construct: Recombinant full length GST tagged PARP6 protein; GST
Experimental: as §1
as §2, with “length GST tagged PARP6” for “length PARP2”, “to 160” for “to 6”, “of 6” for “of 2”
as §3, with “value. Where necessary, the compound Ki can be determined from the IC50 value using a Munson Rodbard equation defined in Anal Biochem. 1980 Sep. 1; 107(1):220-39 and is based on the known KD of the probe binding to the relevant PARP protein” for “value.”

[6] = target: hERG (Homo sapiens, UniProt Q12809); experiment: hERG inhibition
From the text: It is well known that blockade of the cardiac ion channel coded by human ether-n-gogo-related gene (hERG) is a risk factor in drug discovery and development. Blockage of hERG can cause safety problems such as cardiac arrhythmia. Advantageously, the compounds of Formula I have low hERG activity.

[7] = test system: BRCA2 (−/−) DLD1 cells; experiment: PARP proliferation assay (7 day compound dosing), BRCA2 (−/−) DLD1; format: cell-based; settings: Homo sapiens, DLD-1, 168 h, BRCA2 −/− DLD-1 cells, 7 day dosing; read-out: BRCA2 −/− DLD-1 prolif. 7 d IC50
Experimental: (§4) PARP Proliferation Assay (7 Day Compound Dosing)
(§5) DLD1 and BRCA2 (−/−) DLD1 cells were harvested to a density of 5000 cells/ml and 2.5E4 cells/ml respectively in complete media, 40 μL/well seeded into 384-well plates (Greiner, Kremsmunster, Austria; 781090) using a Multidrop Combi then incubated at 37° C., 5% CO2 overnight. Next day (Day 1) using a Multidrop Combi add sytoxgreen (5 ul, 2 uM) and saponin (10 ul, 0.25% stock) to a day 0 plate, seal the plate using a black adhesive lid and incubate for >3 h at rt. Cells were imaged using Cell Insight (Thermo Fisher) fitted with a 4× objective. Test compounds are added using an Echo 555 and placed in incubator maintained at 37° C., 5% CO2 and incubated for 7 days. On Day 8 add sytox green (5 ul, 2 uM) and then saponin (10 ul, 0.25% stock) to plates, seal the plate using a black adhesive lid and incubate for >3 h at rt. Read all cells on the Cell Insight with 4× Objective. The rate of proliferation is determined in Genedata by assessing the total cell number output from the Cell Insight for Day 0 and Day 8 plates.

[8] = test system: DLD1 cells; experiment: PARP proliferation assay (7 day compound dosing), WT DLD1; format: cell-based; settings: Homo sapiens, 168 h; WT DLD-1 cells, 7 day dosing; read-out: WT DLD-1 prolif. 7 d IC50
Experimental: as §4, §5

T1 sequence (Q9UGN5 whole entry): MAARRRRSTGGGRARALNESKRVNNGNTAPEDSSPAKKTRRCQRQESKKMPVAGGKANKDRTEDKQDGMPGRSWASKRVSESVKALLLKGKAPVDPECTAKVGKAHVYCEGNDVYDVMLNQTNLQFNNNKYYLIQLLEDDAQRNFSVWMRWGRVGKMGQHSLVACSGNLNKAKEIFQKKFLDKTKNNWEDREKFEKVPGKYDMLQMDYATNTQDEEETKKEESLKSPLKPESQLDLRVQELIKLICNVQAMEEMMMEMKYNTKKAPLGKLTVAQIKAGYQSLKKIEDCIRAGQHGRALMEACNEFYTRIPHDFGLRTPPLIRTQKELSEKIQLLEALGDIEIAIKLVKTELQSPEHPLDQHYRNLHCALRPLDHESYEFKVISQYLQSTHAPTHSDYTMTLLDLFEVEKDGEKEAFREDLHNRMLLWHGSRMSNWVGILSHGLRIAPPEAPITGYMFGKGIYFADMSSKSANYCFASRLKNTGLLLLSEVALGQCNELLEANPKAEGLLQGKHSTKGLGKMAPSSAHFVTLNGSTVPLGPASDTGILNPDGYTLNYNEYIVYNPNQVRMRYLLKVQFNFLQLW
T3 sequence (Q2NL67 whole entry): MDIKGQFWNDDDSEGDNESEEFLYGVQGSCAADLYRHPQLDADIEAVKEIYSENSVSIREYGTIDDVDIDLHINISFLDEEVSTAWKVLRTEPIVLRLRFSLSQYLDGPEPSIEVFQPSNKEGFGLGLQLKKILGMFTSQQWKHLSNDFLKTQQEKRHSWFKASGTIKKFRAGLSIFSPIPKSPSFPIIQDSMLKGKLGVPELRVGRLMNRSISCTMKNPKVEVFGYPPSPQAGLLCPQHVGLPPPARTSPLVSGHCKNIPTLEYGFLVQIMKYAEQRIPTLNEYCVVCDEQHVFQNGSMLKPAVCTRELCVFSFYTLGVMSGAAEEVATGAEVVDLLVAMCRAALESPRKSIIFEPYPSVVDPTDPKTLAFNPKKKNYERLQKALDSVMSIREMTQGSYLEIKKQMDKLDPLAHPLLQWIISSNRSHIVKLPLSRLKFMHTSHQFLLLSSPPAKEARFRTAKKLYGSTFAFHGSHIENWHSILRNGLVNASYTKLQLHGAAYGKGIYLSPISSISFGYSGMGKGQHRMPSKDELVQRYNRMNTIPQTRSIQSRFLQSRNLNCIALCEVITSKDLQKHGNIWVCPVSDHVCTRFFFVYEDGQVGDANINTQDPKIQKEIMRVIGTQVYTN
PARP5a, sequence (O95271 1112-1317): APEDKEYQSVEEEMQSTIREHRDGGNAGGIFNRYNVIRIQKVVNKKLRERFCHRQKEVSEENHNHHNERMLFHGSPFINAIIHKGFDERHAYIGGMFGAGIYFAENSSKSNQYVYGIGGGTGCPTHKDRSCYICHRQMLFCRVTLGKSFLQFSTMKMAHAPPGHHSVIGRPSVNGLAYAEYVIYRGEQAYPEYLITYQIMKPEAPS
hERG, sequence (Q12809 whole entry): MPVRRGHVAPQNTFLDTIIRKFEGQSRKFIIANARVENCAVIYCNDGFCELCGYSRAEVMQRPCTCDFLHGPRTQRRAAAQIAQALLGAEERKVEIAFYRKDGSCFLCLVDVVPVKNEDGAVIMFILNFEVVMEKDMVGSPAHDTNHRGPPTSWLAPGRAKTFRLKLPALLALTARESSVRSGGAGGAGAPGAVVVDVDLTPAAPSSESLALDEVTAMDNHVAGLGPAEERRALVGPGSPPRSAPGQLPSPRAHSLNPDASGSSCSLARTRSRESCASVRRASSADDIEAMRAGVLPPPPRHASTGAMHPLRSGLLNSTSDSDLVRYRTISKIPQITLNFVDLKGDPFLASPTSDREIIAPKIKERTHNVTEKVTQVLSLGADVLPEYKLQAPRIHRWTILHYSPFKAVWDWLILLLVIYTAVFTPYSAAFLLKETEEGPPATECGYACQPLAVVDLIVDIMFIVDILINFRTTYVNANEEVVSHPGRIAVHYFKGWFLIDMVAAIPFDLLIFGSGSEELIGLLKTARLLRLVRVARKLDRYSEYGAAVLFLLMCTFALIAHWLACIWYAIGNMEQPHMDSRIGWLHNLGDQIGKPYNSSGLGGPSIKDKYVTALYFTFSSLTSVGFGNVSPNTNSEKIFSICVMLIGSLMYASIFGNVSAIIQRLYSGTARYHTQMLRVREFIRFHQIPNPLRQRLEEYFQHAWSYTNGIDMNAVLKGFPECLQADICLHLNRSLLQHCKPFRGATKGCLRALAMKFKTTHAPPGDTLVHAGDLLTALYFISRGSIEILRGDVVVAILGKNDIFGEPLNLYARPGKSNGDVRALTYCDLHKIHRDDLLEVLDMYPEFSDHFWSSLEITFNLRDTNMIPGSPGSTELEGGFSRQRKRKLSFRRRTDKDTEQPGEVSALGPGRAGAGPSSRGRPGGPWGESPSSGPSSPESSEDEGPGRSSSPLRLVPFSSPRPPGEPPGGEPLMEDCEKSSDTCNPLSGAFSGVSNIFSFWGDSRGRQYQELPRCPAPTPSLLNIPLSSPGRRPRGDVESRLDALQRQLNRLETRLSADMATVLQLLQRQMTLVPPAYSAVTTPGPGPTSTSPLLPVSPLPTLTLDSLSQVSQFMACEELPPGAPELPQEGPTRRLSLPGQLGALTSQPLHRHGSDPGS

| efflux ratio at 90 min [1] | IC50 [2] | IC50 [3] | IC50 [4] | IC50 [5] | IC50 [7] | IC50 [8] | Structure (SMILES) | IC50 [6] |
| --- | --- | --- | --- | --- | --- | --- | --- | --- |
|  | > 66 µM | > 100 µM | > 100 µM | > 100 µM | 12 nM | > 7.9 µM | CCc1nc2ccc(CN3CCN(c4ccc(C(=O)NC)nc4Cl)CC3)c(Cl)c2[nH]c1=O [Example 8, 6-chloro-5-[4-[(5-chloro-2-ethyl-3-oxo-4H-quinoxalin-6-yl)methyl]piperazin-1-yl]-N-methyl-pyridine-2-carboxamide] | > 40 µM |
|  | > 100 µM | > 100 µM | > 100 µM | > 100 µM | 10 nM | > 10 µM | CCc1nc2ccc(CN3CCN(c4ccc(C(=O)NC)nc4F)CC3)c(Cl)c2[nH]c1=O [Example 9, 5-[4-[(5-chloro-2-ethyl-3-oxo-4H-quinoxalin-6-yl)methyl]piperazin-1-yl]-6-fluoro-N-methyl-pyridine-2-carboxamide] | > 40 µM |
|  | > 100 µM | > 100 µM | > 100 µM | > 100 µM | > 30000 nM | > 30 µM | CCc1nc2ccc(CN3CCN(c4ccc(C(=O)NC)nc4)CC3)c(Cl)c2[nH]c1=O [Example 10, 5-[4-[(5-chloro-2-ethyl-3-oxo-4H-quinoxalin-6-yl)methyl]piperazin-1-yl]-N-methyl-pyridine-2-carboxamide] | > 40 µM |
|  | > 100 µM | > 100 µM | > 100 µM | > 100 µM | 9 nM | > 30 µM | CCc1nc2ccc(CN3CCN(c4ccc(C(=O)NC)nc4C)CC3)c(Cl)c2[nH]c1=O [Example 11, 5-[4-[(5-chloro-2-ethyl-3-oxo-4H-quinoxalin-6-yl)methyl]piperazin-1-yl]-N,6-dimethyl-pyridine-2-carboxamide] | > 40 µM |
|  | > 100 µM | > 100 µM | > 100 µM | > 100 µM | 1050 nM | > 10 µM | CNC(=O)c1ccc(N2CCN(Cc3ccc4nc(C)c(=O)[nH]c4c3Cl)CC2)c(F)n1 [Example 17, 5-[4-[(5-chloro-2-methyl-3-oxo-4H-quinoxalin-6-yl)methyl]piperazin-1-yl]-6-fluoro-N-methyl-pyridine-2-carboxamide] | > 40 µM |
|  | > 100 µM | > 100 µM | > 100 µM | > 100 µM | 4330 nM | 21 µM | CNC(=O)c1ccc(N2CCN(Cc3ccc4nc(C)c(=O)[nH]c4c3Cl)CC2)c(C)n1 [Example 18, 5-[4-[(5-chloro-2-methyl-3-oxo-4H-quinoxalin-6-yl)methyl]piperazin-1-yl]-N,6-dimethyl-pyridine-2-carboxamide] |  |
|  |  |  |  |  | 3 nM | > 30 µM | CCc1nc2ccc(CN3CCN(c4ccc(C(=O)NC)nc4C)CC3)c(F)c2[nH]c1=O [Example 23, 5-[4-[(2-ethyl-5-fluoro-3-oxo-4H-quinoxalin-6-yl)methyl]piperazin-1-yl]-N,6-dimethyl-pyridine-2-carboxamide] | > 40 µM |
|  |  |  |  |  | 3 nM | > 30 µM | CCc1nc2ccc(CN3CCN(c4ccc(C(=O)NC)nc4C(F)F)CC3)c(F)c2[nH]c1=O [Example 24, 6-(difluoromethyl)-5-[4-[(2-ethyl-5-fluoro-3-oxo-4H-quinoxalin-6-yl)methyl]piperazin-1-yl]-N-methyl-pyridine-2-carboxamide] | > 36 µM |
|  |  |  |  |  | 6 nM | 6.3 µM | CCc1nc2ccc(CN3CCN(c4ccc(C(=O)NC)nc4F)CC3)c(F)c2[nH]c1=O [Example 27, 5-[4-[(2-ethyl-5-fluoro-3-oxo-4H-quinoxalin-6-yl)methyl]piperazin-1-yl]-6-fluoro-N-methyl-pyridine-2-carboxamide] | > 40 µM |
|  |  |  |  |  | 3 nM | > 30 µM | CNC(=O)c1ccc(N2CCN(Cc3ccc4nc(C)c(=O)[nH]c4c3F)CC2)c(Cl)n1 [Example 30, 6-chloro-5-[4-[(5-fluoro-2-methyl-3-oxo-4H-quinoxalin-6-yl)methyl]piperazin-1-yl]-N-methyl-pyridine-2-carboxamide] | > 40 µM |

The next lines start with the molecule.

| Structure (SMILES) | efflux ratio at 90 min [1] | IC50 [2] | IC50 [3] | IC50 [4] | IC50 [5] | IC50 [7] | IC50 [8] | IC50 [6] |
| --- | --- | --- | --- | --- | --- | --- | --- | --- |
| CNC(=O)c1ccc(N2CCN(Cc3ccc4nc(C(C)F)c(=O)[nH]c4c3F)CC2)c(C)n1 (single isomer, unassigned) [Example 14, 5-[4-[[5-fluoro-2-[(1S OR 1R)-1-fluoroethyl]-3-oxo-4H-quinoxalin-6-yl]methyl]piperazin-1-yl]-N,6-dimethyl-pyridine-2-carboxamide] | 3.7 |  |  |  |  |  |  |  |
| CNC(=O)c1ccc(N2CCN(Cc3ccc4nc(C)c(=O)[nH]c4c3Cl)CC2)cn1 [Example 16, 5-[4-[(5-chloro-2-methyl-3-oxo-4H-quinoxalin-6-yl)methyl]piperazin-1-yl]-N-methyl-pyridine-2-carboxamide] |  | > 100 µM | > 100 µM | > 29 µM | > 100 µM | 3620 nM | > 30 µM | > 40 µM |
| CNC(=O)c1ccc(N2CCN(Cc3ccc4nc(C)c(=O)[nH]c4c3F)CC2)c(F)n1 [Example 20, 6-fluoro-5-[4-[(5-fluoro-2-methyl-3-oxo-4H-quinoxalin-6-yl)methyl]piperazin-1-yl]-N-methyl-pyridine-2-carboxamide] |  |  | > 100 µM | > 100 µM | > 100 µM |  |  | > 40 µM |
| CCc1nc2ccc(CN3CCN(c4ccc(C(=O)NC)nc4)CC3)c(F)c2[nH]c1=O [Example 29, 5-[4-[(2-ethyl-5-fluoro-3-oxo-4H-quinoxalin-6-yl)methyl]piperazin-1-yl]-N-methyl-pyridine-2-carboxamide] |  |  |  |  |  | 5 nM | > 10 µM | > 40 µM |
| CNC(=O)c1ccc(N2CCN(Cc3ccc4nc(C)c(=O)[nH]c4c3F)CC2)cn1 [Example 32, 5-[4-[(5-fluoro-2-methyl-3-oxo-4H-quinoxalin-6-yl)methyl]piperazin-1-yl]-N-methyl-pyridine-2-carboxamide] |  |  |  |  |  | 1080 nM | 23 µM | > 40 µM |
| CNC(=O)c1ccc(N2CCN(Cc3ccc4nc(C(F)(F)F)c(=O)[nH]c4c3F)CC2)c(F)n1 [Example 48, 6-fluoro-5-[4-[[5-fluoro-3-oxo-2-(trifluoromethyl)-4H-quinoxalin-6-yl]methyl]piperazin-1-yl]-N-methyl-pyridine-2-carboxamide] |  |  |  |  |  | 18 nM | 27 µM | > 40 µM |

Reference: US12421208B2, “Chemical compounds” (ASTRAZENECA AB, priority 2020, dated 2025)
